From ChEMBL document CHEMBL1201862, “PubChem BioAssay data set” (2004) come the findings set out here.

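Protocol summary: plate cells (96-well), add compound at 5 concentrations, incubate 48 h, interpolate endpoints linearly. At the GI50, growth is halved.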 Calls of active or inactive are those of the source. Cut-off read from the data, not from the text of the source: active = GI50 up to about 1.1 µM and inactive = higher. A value given as a limit tells only on which side of the number the result lay.

Some test systems named below: DU-145; 786-0; A549; IGROV-1; COLO 205; ACHN; MOLT-4; A498; BT-549; CAKI-1; HOP-62; SNB-75; OVCAR-4; SK-MEL-2; MDA-MB-231; NCI-H23; MDA-MB-435; HCT-15; K562; NCI-H460.
Test in all cases: NCI tumour cell line growth inhibition, 48 h

With `COc1cc(C)c2c(c1C=O)Oc1c(c(C)c(O)c3c1C(O)OC3=O)OC2=O` (stereo unspecified) [STICTIC ACID], the GI50 in the experiment on DU-145 is 87.5 µM (inactive); in the experiment with 786-0, 73.3 µM (inactive); in the experiment with A549 it was > 100 µM (inactive); in the experiment on IGROV-1, 23.1 µM (inactive); with COLO 205, 28.3 µM (inactive); with ACHN it was 22 µM (inactive). Also, the GI50 in the experiment on MOLT-4 is 17.6 µM (inactive); in the experiment on A498, 31.2 µM (inactive); in the experiment on BT-549 it was 35.2 µM (inactive); in the experiment with CAKI-1, > 100 µM (inactive); with HOP-62, 70.1 µM (inactive); in the experiment on SNB-75, 26.6 µM (inactive). The GI50 was 25.5 µM (inactive) in the experiment on OVCAR-4; > 10 µM (inactive) in the experiment with SK-MEL-2; 23.3 µM (inactive) in the experiment on MDA-MB-231; 26.5 µM (inactive) in the experiment on NCI-H23; 50.5 µM (inactive) with MDA-MB-435; 17.6 µM with HCT-15.
With `Oc1c(Br)cc(CN(Cc2cc(Br)c(O)c(Br)c2)C2CCCCC2)cc1Br`, the GI50 in the experiment with DU-145, in the experiment with 786-0, in the experiment with A549, in the experiment on IGROV-1, in the experiment on COLO 205 and in the experiment on ACHN was > 100 µM (inactive) in each case. In addition, the GI50 in the experiment with MOLT-4, in the experiment with A498, with BT-549, in the experiment with CAKI-1, in the experiment with HOP-62 and with SNB-75 was > 100 µM (inactive) throughout. The GI50 in the experiment on OVCAR-4, in the experiment with SK-MEL-2, with MDA-MB-231, in the experiment on NCI-H23, in the experiment with MDA-MB-435 and in the experiment with K562 was > 100 µM (inactive) in each case. In addition, the GI50 in the experiment on HCT-15 was greater than 100 µM.
Turning to `CN(NC(=O)c1ccco1)C1=NCCN1`, the GI50 with DU-145, with 786-0, in the experiment with A549, in the experiment on IGROV-1, in the experiment with COLO 205 and with ACHN was > 100 µM (inactive) each time. The GI50 with MOLT-4, in the experiment with A498, in the experiment with BT-549, in the experiment on HOP-62, in the experiment on SNB-75 and in the experiment on OVCAR-4 was > 100 µM (inactive) throughout. The GI50 with SK-MEL-2, with MDA-MB-231, in the experiment on NCI-H23, in the experiment with MDA-MB-435, with NCI-H460 and in the experiment with K562 was > 100 µM (inactive) in each case. In the experiment on HCT-15, this compound registered a GI50 greater than 100 µM.
As for `Cc1cc(=O)n2nc(CN3CCCCC3)sc2n1`, the GI50 with DU-145, in the experiment on 786-0, in the experiment with A549, in the experiment on IGROV-1, in the experiment on COLO 205 and with ACHN was > 100 µM (inactive) in each case. The GI50 was > 100 µM (inactive) in the experiment on MOLT-4; > 100 µM (inactive) with BT-549; > 100 µM (inactive) in the experiment on CAKI-1; > 100 µM (inactive) in the experiment with HOP-62; 54.5 µM (inactive) with SNB-75; > 100 µM (inactive) in the experiment on OVCAR-4. The GI50 in the experiment with SK-MEL-2, with MDA-MB-231, in the experiment on NCI-H23, in the experiment on MDA-MB-435, in the experiment with NCI-H460 and in the experiment on K562 was > 100 µM (inactive) each time. In addition, the GI50 in the experiment with HCT-15 was greater than 100 µM.
Consider `CC(=O)N1C=Cc2c(c(C)c3c([nH]c4ccccc43)c2C)C1`, for which the GI50 with DU-145 was 11.5 µM (inactive); with 786-0, 2.41 µM (inactive); in the experiment on A549, 4.54 µM (inactive); in the experiment on IGROV-1 it was 3.76 µM (inactive); in the experiment with COLO 205, 2.4 µM (inactive); with ACHN, 1.09 µM (active). Besides, the GI50 in the experiment on MOLT-4 is 13.1 µM (inactive); with A498, 14.8 µM (inactive); with BT-549, 3.33 µM (inactive); with CAKI-1 it was 10.1 µM (inactive); with HOP-62, 3.02 µM (inactive); with OVCAR-4 it was 2.13 µM (inactive). Besides, the GI50 with SK-MEL-2 is 12.3 µM (inactive); with MDA-MB-231, 3.2 µM (inactive); in the experiment on NCI-H23, 5.92 µM (inactive); in the experiment on MDA-MB-435 it was 13 µM (inactive); in the experiment on NCI-H460, 1.23 µM (inactive); in the experiment with K562, > 100 µM (inactive). This compound had a GI50 in the experiment on HCT-15 of 2.1 µM.
Turning to `COC(=O)c1c(C)nc(C)c(NO)c1-c1ccccc1C(F)(F)F`, the GI50 is 32.8 µM (inactive) in the experiment on DU-145; 16.4 µM (inactive) in the experiment with 786-0; > 100 µM (inactive) with A549; 18.8 µM (inactive) in the experiment with IGROV-1; 27.1 µM (inactive) in the experiment with COLO 205; 30.8 µM (inactive) in the experiment on ACHN. Moreover, the GI50 with MOLT-4 is 26.1 µM (inactive); in the experiment on A498, > 100 µM (inactive); in the experiment on BT-549, 16.7 µM (inactive); in the experiment on CAKI-1, 16.2 µM (inactive); in the experiment on HOP-62 it was > 100 µM (inactive); in the experiment on OVCAR-4 it was 20 µM (inactive). In addition, the GI50 was 53.8 µM (inactive) in the experiment on SK-MEL-2; 13.8 µM (inactive) in the experiment on MDA-MB-231; 35.6 µM (inactive) in the experiment on NCI-H23; 19.6 µM (inactive) with MDA-MB-435; > 100 µM (inactive) with NCI-H460; 28.3 µM (inactive) in the experiment on K562. The GI50 in the experiment on HCT-15 was 16.1 µM.
For `COc1ccc(NC(=O)C(=O)C(CC2C(=O)NC(=S)NC2=O)C(=O)c2ccc3ccccc3c2)c([N+](=O)[O-])c1` (stereo unspecified), the GI50 in the experiment with DU-145, with 786-0, in the experiment on A549, in the experiment with IGROV-1, in the experiment with COLO 205 and in the experiment with ACHN was > 100 µM (inactive) in each case. In addition, the GI50 in the experiment with MOLT-4, in the experiment with A498, with BT-549, with CAKI-1, in the experiment on SNB-75 and in the experiment with OVCAR-4 was > 100 µM (inactive) throughout. Moreover, the GI50 with SK-MEL-2, with MDA-MB-231, in the experiment on NCI-H23, with MDA-MB-435, with NCI-H460 and in the experiment on K562 was > 100 µM (inactive) in each case. The same compound yielded a GI50 in the experiment on HCT-15 greater than 100 µM.
For the compound `Nc1ccc(-c2nc3ccccc3s2)cc1C(F)(F)F`, the GI50 was 15.8 µM (inactive) in the experiment on DU-145; 13.5 µM (inactive) in the experiment on 786-0; 17.8 µM (inactive) in the experiment with A549; 18.1 µM (inactive) with COLO 205; 15.2 µM (inactive) with ACHN; 19.9 µM (inactive) in the experiment with MOLT-4. Further, the GI50 in the experiment on A498 is 17.6 µM (inactive); with BT-549, 13.2 µM (inactive); with CAKI-1, 15.2 µM (inactive); with HOP-62, 15.4 µM (inactive); in the experiment with SNB-75, 14.5 µM (inactive); in the experiment on SK-MEL-2, 17.2 µM (inactive). Besides, the GI50 with MDA-MB-231 was 13.2 µM (inactive); with NCI-H23 it was 13.5 µM (inactive); in the experiment with MDA-MB-435 it was 16.5 µM (inactive); in the experiment on K562 it was 20 µM (inactive); in the experiment with HCT-15, 13.4 µM.
On to `N#CSC#Cc1ccc(C#CSC#N)cc1`, for which the GI50 with DU-145 was 15.1 µM (inactive); with 786-0 it was 17.2 µM (inactive); in the experiment with A549 it was 17.8 µM (inactive); in the experiment with IGROV-1, 15.5 µM (inactive); with COLO 205 it was 18.2 µM (inactive); with ACHN, 16.5 µM (inactive). For the same compound, the GI50 was 36.2 µM (inactive) in the experiment with MOLT-4; 20.2 µM (inactive) in the experiment with A498; 17.9 µM (inactive) in the experiment on BT-549; 16.1 µM (inactive) in the experiment with CAKI-1; 23 µM (inactive) in the experiment on HOP-62; 8.81 µM (inactive) in the experiment on OVCAR-4. The GI50 in the experiment on SK-MEL-2 is 20.2 µM (inactive); with MDA-MB-231 it was 17.8 µM (inactive); with NCI-H23, 18.7 µM (inactive); with MDA-MB-435 it was 20.9 µM (inactive); in the experiment with NCI-H460, 19.9 µM (inactive); in the experiment with K562 it was 39.1 µM (inactive). The same compound showed a GI50 with HCT-15 of 19.4 µM.
As to `C1COC(NC(C2CC2)C2CC2)=N1` [RILMENIDINE], the GI50 in the experiment on DU-145, with 786-0, in the experiment with A549, in the experiment with IGROV-1, in the experiment on COLO 205 and with ACHN was > 100 µM (inactive) throughout. Besides, the GI50 in the experiment on MOLT-4 is > 100 µM (inactive); in the experiment with A498 it was > 100 µM (inactive); in the experiment on BT-549 it was > 100 µM (inactive); in the experiment on CAKI-1, > 100 µM (inactive); in the experiment with SNB-75 it was 31.1 µM (inactive); in the experiment with OVCAR-4, > 100 µM (inactive). Also, the GI50 in the experiment with SK-MEL-2, with MDA-MB-231, with NCI-H23, in the experiment on MDA-MB-435, with NCI-H460 and with K562 was > 100 µM (inactive) throughout. The compound also yielded a GI50 with HCT-15 greater than 100 µM.
In the case of `C/C=C(\C)C(=O)O[C@@H]1CC(C)(C)CC2C3=CCC4[C@]56CC[C@](O)(OC5)C(C)(C)C6CC[C@@]4(C)C3(C)CC[C@]21C(=O)O` (stereo partly specified), the GI50 with DU-145 was > 100 µM (inactive); with 786-0, > 100 µM (inactive); in the experiment with A549 it was 53.3 µM (inactive); in the experiment on IGROV-1, 54.3 µM (inactive); in the experiment with COLO 205, 83.9 µM (inactive); in the experiment on ACHN, 59.4 µM (inactive). Further, the GI50 with MOLT-4, in the experiment with A498, in the experiment with BT-549, in the experiment with CAKI-1, in the experiment on HOP-62 and in the experiment with OVCAR-4 was > 100 µM (inactive) each time. In addition, the GI50 in the experiment on SK-MEL-2 is > 100 µM (inactive); with MDA-MB-231, > 100 µM (inactive); in the experiment with NCI-H23 it was > 100 µM (inactive); with MDA-MB-435, > 100 µM (inactive); in the experiment with NCI-H460, 78.2 µM (inactive); in the experiment on K562 it was > 100 µM (inactive). Moreover, in the experiment on HCT-15, the GI50 is 83.4 µM.
